Laboratory results: article PMC12016938, “A small molecule PKCε inhibitor reduces hyperalgesia induced by paclitaxel or opioid withdrawal” (JCI Insight, 2025)
“And” between values parts separate entries of the source, which are not always exact repeats. Equal values may be shown once. “Also recorded” adds a separate entry of the source.

Tests used:
[1] = molecular target: T1, PKCβII (Homo sapiens, UniProt P05771); assay: Lance-FRET kinase assay, PKCβII; type: biochemical; conditions: Figure 1B
T1 construct: purchased SignalChem Biotech
T1 sequence (P05771 1-673 isoform P05771-2): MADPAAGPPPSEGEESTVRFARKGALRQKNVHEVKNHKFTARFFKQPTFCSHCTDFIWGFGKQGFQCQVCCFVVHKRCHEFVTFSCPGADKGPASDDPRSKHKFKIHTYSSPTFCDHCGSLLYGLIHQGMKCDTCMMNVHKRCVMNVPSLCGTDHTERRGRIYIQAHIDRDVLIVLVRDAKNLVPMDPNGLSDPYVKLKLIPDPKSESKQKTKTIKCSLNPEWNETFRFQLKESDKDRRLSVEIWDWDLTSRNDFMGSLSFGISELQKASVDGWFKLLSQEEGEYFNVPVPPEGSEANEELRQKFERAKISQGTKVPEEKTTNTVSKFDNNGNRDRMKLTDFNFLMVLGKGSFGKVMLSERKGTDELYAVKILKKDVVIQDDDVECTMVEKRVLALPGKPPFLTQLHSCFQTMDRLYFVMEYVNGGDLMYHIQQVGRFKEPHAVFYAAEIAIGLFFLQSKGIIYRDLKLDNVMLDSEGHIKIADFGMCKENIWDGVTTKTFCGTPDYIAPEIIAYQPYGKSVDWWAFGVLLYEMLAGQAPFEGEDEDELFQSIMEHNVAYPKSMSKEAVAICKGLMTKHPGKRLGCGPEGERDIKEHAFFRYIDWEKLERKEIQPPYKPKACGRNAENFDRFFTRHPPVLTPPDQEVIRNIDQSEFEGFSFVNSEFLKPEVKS
Protocol: (§1) Kinase assays. CP612 was assayed against His-AVI–tagged human PKCε (1 nM) produced in Sf9 cells, and ROCK1 (Carna Biosciences; 5 nM) using the Lance-FRET kinase assay system (PerkinElmer Revvity). Other human recombinant PKCs (SignalChem Biotech) were assayed in triplicate at the following concentrations: PKCβII 1.6 nM, PKCγ 500 pM, PKCδ 5 nM, PKCθ 500 pM, and PKCζ 500 pM. PKCs were incubated in a 15 μL reaction volume with kinase buffer (20 mM Tris-HCL [pH 7.4], 10 mM MgCl2, 0.25 mM EGTA, 0.1 mg/mL BSA, and 0.15% Triton X-100), 50 nM ULight-labeled CREBtide […] (PerkinElmer, TRF0107, Revvity), and test compound. […] After incubation at 27°C for another 60 minutes, phosphorylation was detected using a FlexStation 3 Microplate Reader (Molecular Devices) in LANCE TR-FRET mode (excitation = 340 nm, emission = 665 nm) and expressed as relative fluorescence units (RFU). The percentage of inhibition was calculated as: (signal without test compound − signal with test compound)/(signal without test compound − signal without ATP) × 100. […]
(§2) Kinase assays used 11-point concentration-response curves and results were analyzed by nonlinear regression using Prism 9 (GraphPad Software) to determine IC50 values. […] Scores for pain threshold, conditioned place preference, and self-administration were analyzed by ANOVA using the following factors. […]

[2] = molecular target: T2, ROCK1 (Homo sapiens, UniProt Q13464); assay: scanMax kinome panel, ROCK1; type: binding; set-up: purchased Eurofins-DiscoverX; conditions: 200 nM CP612
Protocol: CP612 was screened for kinome specificity at 200 nM against 468 kinases using the scanMax assay panel from Eurofins-DiscoverX. CP612 inhibited 10 other WT kinases besides PKCε, all to < 10% of control: CLK1 (CDC Like Kinase 1), CLK4, PKN1 (Protein kinase N1), PKN2, PKCδ, PKCη, PKCθ, PRKG2 (Protein Kinase CGMP-Dependent 2), ROCK1, and ROCK2.
Target sequence in this assay (Q13464 whole entry): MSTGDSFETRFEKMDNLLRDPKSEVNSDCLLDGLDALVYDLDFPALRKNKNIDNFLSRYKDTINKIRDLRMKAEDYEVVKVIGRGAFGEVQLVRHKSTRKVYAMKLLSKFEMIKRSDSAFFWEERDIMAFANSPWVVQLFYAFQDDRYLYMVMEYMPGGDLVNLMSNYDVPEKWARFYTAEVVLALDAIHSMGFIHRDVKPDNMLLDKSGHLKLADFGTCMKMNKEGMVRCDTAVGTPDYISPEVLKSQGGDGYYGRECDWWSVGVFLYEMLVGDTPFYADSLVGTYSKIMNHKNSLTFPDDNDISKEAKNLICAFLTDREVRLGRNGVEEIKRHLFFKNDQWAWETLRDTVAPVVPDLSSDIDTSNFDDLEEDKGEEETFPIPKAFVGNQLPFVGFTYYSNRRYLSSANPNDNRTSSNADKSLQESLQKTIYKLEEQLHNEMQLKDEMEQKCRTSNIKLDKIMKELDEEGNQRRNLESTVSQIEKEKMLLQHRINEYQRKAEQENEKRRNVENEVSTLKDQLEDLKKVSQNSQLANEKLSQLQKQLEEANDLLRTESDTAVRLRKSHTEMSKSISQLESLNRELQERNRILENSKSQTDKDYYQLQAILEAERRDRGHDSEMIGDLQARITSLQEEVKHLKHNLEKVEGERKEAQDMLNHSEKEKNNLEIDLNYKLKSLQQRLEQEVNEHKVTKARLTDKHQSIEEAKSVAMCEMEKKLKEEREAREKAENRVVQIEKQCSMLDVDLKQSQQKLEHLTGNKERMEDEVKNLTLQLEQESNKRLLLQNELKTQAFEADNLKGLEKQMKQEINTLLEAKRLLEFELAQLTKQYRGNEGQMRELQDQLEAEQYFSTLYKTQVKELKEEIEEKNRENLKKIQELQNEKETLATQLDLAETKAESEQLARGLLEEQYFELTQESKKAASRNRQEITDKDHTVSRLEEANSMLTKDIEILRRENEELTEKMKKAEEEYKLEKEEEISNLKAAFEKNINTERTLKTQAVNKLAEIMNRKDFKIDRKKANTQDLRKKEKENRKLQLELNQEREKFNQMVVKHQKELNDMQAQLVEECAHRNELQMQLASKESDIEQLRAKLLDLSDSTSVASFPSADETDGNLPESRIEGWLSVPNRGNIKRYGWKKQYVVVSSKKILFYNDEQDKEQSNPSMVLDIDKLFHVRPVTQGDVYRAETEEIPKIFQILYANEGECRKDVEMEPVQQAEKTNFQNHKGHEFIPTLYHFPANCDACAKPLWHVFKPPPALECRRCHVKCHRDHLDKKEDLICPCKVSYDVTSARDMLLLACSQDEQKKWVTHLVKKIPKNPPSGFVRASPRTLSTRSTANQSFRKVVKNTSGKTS

[3] = tested on: PKCε-dependent mechanical hyperalgesia; assay: Hyperalgesia induced by the PKCε activator ψεRACK, Randall-Selitto paw pressure test; conditions: for Force applied that led to paw withdrawal: one paw
Protocol: Thirty minutes later, rats were administered vehicle (5 μL, intradermally) or CP612 (1 μg/5 μL, intradermally) (Figure 3). We measured nociceptive thresholds at the same site, at baseline, 30 minutes after the administration of ψεRACK (time 0) and 15, 30, and 60 minutes after the administration of vehicle or CP612.
Mechanical nociceptive thresholds in rats were quantified by the Randall-Selitto paw pressure test using an Ugo Basile Analgesy-Meter. This device applies a linearly increasing mechanical force to the dorsum or plantar region of the rat hind paw. The mechanical nociceptive threshold is defined as the force in grams at which a rat withdraws its paw. […] For studies testing nociceptive thresholds after the PKCε activator ψεRACK, or after the cancer chemotherapeutic drug paclitaxel, rats were placed into cylindrical acrylic restrainers for 40 minutes before starting each session. The restrainers had lateral ports to allow access to the hind paw, as previously described ([35]), and pain thresholds were measured by applying force to the dorsum of the hind paw. Prior to starting experiments, baseline mechanical nociceptive threshold was obtained as the mean of 2–3 readings on 1 hind paw in each rat.

[4] = molecular target: T2, ROCK1; assay: Lance-FRET kinase assay, ROCK1; type: biochemical; set-up: purchased Carna Biosciences; conditions: mean of all runs (count 42 CP612; 38 CIDD-0072424); 2.5 μM ATP; read-out: IC50 (nM) [Enzyme: ROCK1], mean
Protocol: as §1, §2
Target sequence in this assay (Q13464 1-477 limits assumed): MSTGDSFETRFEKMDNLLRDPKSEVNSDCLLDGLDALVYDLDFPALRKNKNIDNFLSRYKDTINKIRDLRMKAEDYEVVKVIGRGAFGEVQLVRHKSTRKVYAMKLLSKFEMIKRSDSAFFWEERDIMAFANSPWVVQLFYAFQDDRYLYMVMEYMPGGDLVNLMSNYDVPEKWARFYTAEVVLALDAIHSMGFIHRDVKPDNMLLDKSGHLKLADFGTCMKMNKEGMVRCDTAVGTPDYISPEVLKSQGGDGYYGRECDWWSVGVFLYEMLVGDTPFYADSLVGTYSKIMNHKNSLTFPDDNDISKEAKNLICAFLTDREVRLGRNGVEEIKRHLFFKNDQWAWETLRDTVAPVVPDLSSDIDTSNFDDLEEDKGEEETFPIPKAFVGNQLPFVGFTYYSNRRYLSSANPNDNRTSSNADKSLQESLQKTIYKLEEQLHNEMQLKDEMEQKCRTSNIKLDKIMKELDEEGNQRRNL

[5] = molecular target: PKCδ (Homo sapiens, UniProt Q05655); assay: Lance-FRET kinase assay, PKCδ; type: biochemical; set-up: purchased SignalChem Biotech
PKCδ, sequence (Q05655 whole entry): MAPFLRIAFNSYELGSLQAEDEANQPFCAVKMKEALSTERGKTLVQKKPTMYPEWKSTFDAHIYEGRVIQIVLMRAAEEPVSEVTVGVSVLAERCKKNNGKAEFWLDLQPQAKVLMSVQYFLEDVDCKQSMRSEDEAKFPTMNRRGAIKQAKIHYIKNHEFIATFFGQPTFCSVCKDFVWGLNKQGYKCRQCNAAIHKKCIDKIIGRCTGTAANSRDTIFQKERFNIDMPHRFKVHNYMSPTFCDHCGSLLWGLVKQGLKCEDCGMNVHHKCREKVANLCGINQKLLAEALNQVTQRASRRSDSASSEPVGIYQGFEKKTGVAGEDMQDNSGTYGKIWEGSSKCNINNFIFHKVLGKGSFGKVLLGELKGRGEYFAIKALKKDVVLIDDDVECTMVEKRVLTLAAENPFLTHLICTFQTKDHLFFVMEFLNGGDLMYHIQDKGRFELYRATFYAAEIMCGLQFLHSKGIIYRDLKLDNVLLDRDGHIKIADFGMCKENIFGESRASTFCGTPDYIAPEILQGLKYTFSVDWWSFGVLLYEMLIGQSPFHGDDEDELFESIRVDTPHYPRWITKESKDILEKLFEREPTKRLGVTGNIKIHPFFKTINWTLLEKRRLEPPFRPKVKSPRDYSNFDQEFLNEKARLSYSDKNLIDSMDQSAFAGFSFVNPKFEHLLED
Protocol: as §1, §2

## N[C@H](CNC(=O)C1(c2ccc(Cl)cc2)CCCC1)c1ccc(C(=O)Nc2ccncc2)cc1 [CP612]
[1]
  Inhibition of conventional PKCβII: weakly inhibited
[2]
  scanMax % of control, ROCK1: < 10 % of control
[3]; 0min (30 min after ψεRACK, before CP612)
  Force applied that led to paw withdrawal: 90 grams and 100 grams and 96.7 grams
[3]; 5min after CP612 1µg/5µL intradermally
  Force applied that led to paw withdrawal: 120 grams and 130 grams and 115 grams and 105 grams
[3]; 10min after CP612 1µg/5µL intradermally
  Force applied that led to paw withdrawal: 100 grams and 110 grams and 130 grams and 115 grams and 120 grams and 135 grams
[3]; 15min after CP612 1µg/5µL intradermally
  Force applied that led to paw withdrawal: 90 grams and 125 grams and 130 grams and 110 grams and 115 grams and 100 grams
[3]; 30min after CP612 1µg/5µL intradermally
  Force applied that led to paw withdrawal: 120 grams and 123.3 grams and 125 grams and 115 grams
[3]; 60min after CP612 1µg/5µL intradermally
  Force applied that led to paw withdrawal: 105 grams and 110 grams and 115 grams and 130 grams and 120 grams
[3]; baseline (before ψεRACK and CP612)
  Force applied that led to paw withdrawal: 130 grams and 120 grams and 125 grams
[3]; male rats, CP612 1 μg/5 μL intradermally 30 min after ψεRACK, up to 60 minutes
  Effect on ψεRACK-induced hyperalgesia: reduced; also recorded: near-complete reversal; also recorded: attenuated
[4]
  IC50: 65.9 ± 10.8 nM
[5]; 30 nM CP612, read-out: Inhibition of novel PKCs (PKCδ)
  inhibition at 0.03 µM: > 50%
[5]; Figure 1B PKC isozyme panel
  IC50: 18.8 nM
